Measured values from US8470772B2, “Leptin agonist and methods of use” (Temple University—Of The Commonwealth System of Higher …, priority 2008, dated 2013).
Starred links: 1 amine or outer side, 2 acyl side, 3 side chain; linkers in the order of their positions; H or OH if unused. Non-standard residues stand in square brackets, D forms with d. No end group written: not given here. *: point of attachment. βGlcAc4 = CC(=O)OC[C@H]1O[C@@H](*)[C@H](OC(C)=O)[C@@H](OC(C)=O)[C@@H]1OC(C)=O; Tyr(Me) = O-methyl Tyr, COc1ccc(C[C@H](N[*:1])C(=O)[*:2])cc1; Tyr(3,5-I2) = N[C@@H](Cc1cc(I)c(O)c(I)c1)C(=O)O; dGla = N[C@H](CC(C(=O)O)C(=O)O)C(=O)O; Dap = NC[C@H](N)C(=O)O; βAla = NCCC(=O)O

Experiments:
[1] = test system: astrocytes, brain capillary endothelial cells; experiment: In vitro model of blood-brain-barrier penetration (Transwell cell layers); type: in vitro ADME, human; conditions: 0.1 mM peptide in upper compartment
Description: To confirm the ability of the E1 peptides to cross the blood-brain barrier, penetration of the protected (E1Ac) and free (E1Free) glycopeptides across confluent layers of astrocytes, brain endothelial cells, or a double layer of these two cell types was examined, in comparison with the Site III Ala,Ala non-glycosylated analog.
A confluent monolayer of human astrocytes or brain capillary endothelial cells, or a dual layer of both cell types (astrocytes first, followed by endothelial cells) were grown at 37° C. on polycarbonate filters (Costar, Transwell, 0.4 μm) that were pretreated with collagen. Under these conditions, the endothelial cells retain the characteristics of the blood-brain-barrier, which include complex tight junctions, low rates of pinocytosis and low enzyme levels (S. Lundquist, et al., Pharm. Res., 2002, 19, 976-981). A 0.1 mM solution of each of E1Ac, E1Free or Site III Ala,Ala was added to the upper compartment of the Transwell plates. The plates were then placed back in the incubator and samples were taken from the bottom compartments at 0, 5, 10, 30, and 120 minute intervals. The identity and quantity of peptides that had penetrated through the cell layers were subsequently analyzed by RP-HPLC and MALDI-MS.

MCF-7 cells = experiment: MCF-7 cell stimulation (cell growth) assay, cell counts by trypan blue exclusion; type: cell-based, human; conditions: for Relative stimulation (%) of MCF-7 cells, No leptin added: no exogenous leptin; for antagonistic activity on leptin-induced MCF-7 cell proliferation: in the presence of exogenous leptin; for reversal of leptin-induced cell stimulation: leptin present; for agonistic activity on MCF-7 cells: without leptin; for MCF-7 cell count increase: no leptin
Description: (§1) For the evaluation of the biological activity of the synthesized leptin Site III peptide fragments, human cell lines were selected in which the ObR expression level is known. Two ObR-positive human cell models were used: MCF-7 breast cancer cells and DU-45 prostate cancer cells. Both cell lines express ObR, and leptin and leptin analogues stimulate their growth (C. Garofalo, et al., Clin. Cancer Res., 2004, 10, 6466-6475; C. Garofalo, et al., Clin. Cancer Res., 2006, 12, 1447-1453). Normal mammary epithelial MCF-10 cells lacking ObR were used as a negative control (X. Hu, et al., J. Natl. Cancer Inst., 2002, 94, 1704-1711).
Biological activity of the Site III peptides was assayed as follows. MCF-7 cells were stimulated with 6 nM full-sized leptin. The smaller leptin fragments and analogs were added to the cell culture at a concentration of 10 nM, 100 nM or 1 μM. Leptin at […] concentration stimulated MCF-7 cell growth by approximately 40%, in line with previous observations (C. Garofalo, et al., Clin. Cancer Res., 2004, 10, 6466-6475). All Site III peptides bound to the extracellular domain of ObR as documented by dot-blot or Western-blot analysis. […] In fact, it reversed leptin induced stimulation of MCF-7 cells at as low as 10 nM peptide concentration, with an additional 50% reduction in cell counts at 1 μM. When the assay was run at a more reliably measurable 1 μM peptide concentration, a consistent 6% decrease in cell numbers could be observed compared to the leptin only samples. In summary, in the presence of exogenously added full-sized leptin these assays verified the strong antagonist activity of the Site III Ala,Ala mutant.
(§2) The cell stimulation activity of the Site III peptides was assayed as follows. Human leptin was purchased from R&D Systems and used at a concentration of 100 ng/mL (approximately 6 nM). MCF-7 and DU-45 cells naturally expressing ObR were grown in a standard medium DMEM:F12 plus 5% fetal bovine serum. MCF-10 was grown in serum-free mammalian epithelial growth medium supplemented with 100 ng/mL cholera toxin. Seventy percent confluent cultures were synchronized in serum-free medium (DMEM plus 10 μM FeSO4, plus 0.5% albumin) for 24 h and then treated with leptin and/or peptides (different doses) for 5 days. Cell counts before and after treatment were determined by counting the cells using trypan blue exclusion. All assays were conducted in triplicate and repeated at least twice.

MCF-10 cells = experiment: MCF-10 control cell proliferation assay (cells lacking ObR); type: cell-based, human; conditions: for effect on the proliferation of MCF-10 cells: control cell line lacking ObR
Description: as §1, §2

DU-45 cells = experiment: DU-45 cell stimulation (proliferation) assay; type: cell-based, human
Description: as §1
as §2, with “All assays were conducted in triplicate and repeated at least twice.” left out

ObR extracellular domain = biological target: T1, ObR extracellular domain (Homo sapiens, UniProt P48357); experiment: Dot-blot and ELISA-type solid-phase binding assay; conditions: dot-blot, Western-blot or ELISA; 10 and 20 μg peptide load in ELISA
T1 construct: human IgG Fc-conjugated ObR extracellular domain (R&D Systems); purchased R&D Systems
T1 sequence (P48357 22-839 limits assumed): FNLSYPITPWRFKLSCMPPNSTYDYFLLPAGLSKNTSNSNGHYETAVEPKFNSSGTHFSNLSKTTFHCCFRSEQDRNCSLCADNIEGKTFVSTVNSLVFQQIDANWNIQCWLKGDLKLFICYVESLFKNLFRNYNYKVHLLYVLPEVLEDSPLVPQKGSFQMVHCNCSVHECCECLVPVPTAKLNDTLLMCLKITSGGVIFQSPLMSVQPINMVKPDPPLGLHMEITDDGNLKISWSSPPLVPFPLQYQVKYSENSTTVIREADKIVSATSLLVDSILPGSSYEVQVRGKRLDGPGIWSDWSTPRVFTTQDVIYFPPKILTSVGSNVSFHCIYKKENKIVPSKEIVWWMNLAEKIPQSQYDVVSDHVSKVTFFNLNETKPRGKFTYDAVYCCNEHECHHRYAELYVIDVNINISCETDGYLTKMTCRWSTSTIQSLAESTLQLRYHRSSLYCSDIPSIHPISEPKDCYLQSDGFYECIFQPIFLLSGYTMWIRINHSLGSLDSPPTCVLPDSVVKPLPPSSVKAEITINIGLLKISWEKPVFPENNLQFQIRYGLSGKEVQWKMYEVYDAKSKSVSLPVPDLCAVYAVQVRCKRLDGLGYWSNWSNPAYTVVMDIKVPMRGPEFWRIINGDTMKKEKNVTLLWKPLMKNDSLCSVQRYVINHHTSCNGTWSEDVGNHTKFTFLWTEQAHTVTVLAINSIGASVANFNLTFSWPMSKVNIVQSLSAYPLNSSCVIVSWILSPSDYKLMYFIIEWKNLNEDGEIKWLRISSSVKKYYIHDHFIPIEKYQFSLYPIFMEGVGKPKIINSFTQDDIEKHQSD
Method: For dot-blot and ELISA assays, the leptin fragments were dissolved in electroblot transfer buffer (25 mM Tris and […] buffer containing 20% methanol) and were applied to either a nitrocellulose membrane or dried upon ELISA plates (Otvos, L., Jr., and Szendrei, G. I. (1996) Enzyme-linked immunosorbent assay of peptides. In: Neuropeptide Protocols (G. B. Irvine and C. H. Williams, eds.). Humana Press, Totowa, N.J., pp. 269-275). The solid surfaces were blocked with 5% BSA in a PBS-0.5% Tween 20 buffer (PBST) for 3 hours at room temperature and were subsequently incubated with 10 μg/mL solution of human IgG Fc-conjugated ObR extracellular domain (R&D Systems) dissolved in Tris-buffered saline-0.1% Tween 20 buffer (TBST) containing 1% bovine serum albumin (BSA) for 1 hour. A monoclonal goat antibody (Santa Cruz Biotechnology), specific for the N-terminus of human ObR, was added to the assay mixture, followed by addition of a horseradish peroxidase(HRP)-conjugated anti-goat IgG donkey antibody for the dot-blot assay, and HRP-conjugated anti-goat Fc mouse antibody for ELISA assay (used at a 1:15,000 dilution in PBST and 1% BSA). Between reagents, the solid surfaces were washed extensively with PBST. After washing with PBST, the membrane was treated with a chemiluminescence luminol oxidizer (NEN) for 1 min. The resultant chemiluminescence was exposed to a X-Omat blue XB-1 film (Kodak) for 10 seconds, and the exposed film was developed. The ELISA was developed using an HRP ELISA kit including tetramethylbenzidine as a substrate and sulfuric acid as a stop solution. Optical absorbance values were read at 490 nm using a microplate reader.

Substance: SGYAAEVVALSRLQGS-NH2 [Site III Ala,Ala, Ser-Gly-Tyr-Ala-Ala-Glu-Val-Val-Ala-Leu-Ser-Arg-Leu-Gln-Gly-Ser]
- earliest time point at which peptide was detected in the bottom compartment [1]: 30 min

Substance: Gly-Tyr(I2)-Ser-Thr-Glu-Val-Va1-βAla-Leu-Ser-Arg-Leu (G[Tyr(3,5-I2)]STEVV[βAla]LSRL-NH2) [A4]
- Relative stimulation (%) of MCF-7 cells, No leptin added (MCF-7 cells; 1 μM peptide): +102%

Substance: Tyr(Me)-Ser-Thr-Glu-Val-Val-βAla-Leu-Ser-Arg-Leu ([Tyr(Me)]STEVV[βAla]LSRL-NH2) [A11]
- Relative stimulation (%) of MCF-7 cells, No leptin added (MCF-7 cells; 1 μM peptide): +19%
- antagonistic activity on leptin-induced MCF-7 cell proliferation (MCF-7 cells): basically inactive

Substance: Leptin: Human leptin purchased from R&D Systems; full-length sequence SEQ ID NO:1
- stimulation of MCF-7 cell growth (MCF-7 cells; leptin at 10 nM): approximately 40%

Substance: Gly-Tyr(I2)-Ser-Thr-D-Gla-Val-Val-D-Ala-Leu-Ser-Arg-Leu [F2]
- reversal of leptin-induced cell stimulation (MCF-7 cells; 1 μM peptide): 15%
- Relative stimulation (%) of MCF-7 cells, With 10 nM leptin (MCF-7 cells; 1 μM peptide, with 10 nM leptin): −15%
- antagonistic activity on leptin-induced MCF-7 cell proliferation (MCF-7 cells): antagonists
- agonistic activity on MCF-7 cells (MCF-7 cells): agonists

Substance: Tyr(Me)-Ser-Thr-D-Gla-Val-Val-D-Ala-Leu-Ser-Arg-Leu ([Tyr(Me)]ST[dGla]VV[dA]LSRL-NH2) [D12]
- reversal of leptin-induced cell stimulation (MCF-7 cells; 1 μM peptide): 43%
- antagonistic activity on leptin-induced MCF-7 cell proliferation (MCF-7 cells): antagonists
- agonistic activity on MCF-7 cells (MCF-7 cells): agonists

Substance: SGYSTEVVALSRLQGS [Site III 117-132]
- effect on the proliferation of MCF-10 cells (MCF-10 cells; listed as Site III peptide): did not demonstrate a major effect
- effect on the proliferation of MCF-10 cells (MCF-10 cells; listed as site III fragment): no effect
- reduction in leptin-induced cell growth (MCF-7 cells; 1 μM peptide, in the presence of 10 nM leptin): 21%
- agonistic activity on MCF-7 cells (MCF-7 cells): did not noticeably influence the cell growth
- effect on the proliferation of DU-45 cells (DU-45 cells): no effect

Substance: pyrrhocoricin: negative control antibacterial peptide with Pro-Arg-Pro repeats, equal in size with the leptin fragments (VDKGSYLPRPTPPRPIYNRN) [reference compound]
- binding to the extracellular domain of ObR (ObR extracellular domain): did not bind

Substance: Tyr(I2)-Serβ(GlcAc4)-Thr-Glu-Val-Val-Ala-Leu-Ser-Arg-Leu-Dap(Ac) ([Tyr(3,5-I2)]S(βGlcAc4)TEVVALSRL[Dap](Ac)-NH2) [E1Ac]
- activity on MCF-10 normal mammary epithelial cells (MCF-10 cells; 100 nM and 1000 nM peptide): inactive
- binding to the extracellular domain of ObR (ObR extracellular domain): bound
- MCF-7 cell count increase (MCF-7 cells; 100 nM peptide): 54%
- further increase of leptin-induced cell stimulation (MCF-7 cells; 1000 nM peptide, in the presence of 6 nM leptin): 17%
- MCF-7 cell count increase (MCF-7 cells; 1000 nM peptide): 101%
- overall agonist character on cells expressing ObR (MCF-7 cells; in the presence and absence of leptin): full agonists
